Test system: 3TP-Lux luciferase reporter (TGF-β-responsive region of the PAI-1 gene) in C2C12 cells
Test: C2C12 cell-based Dual-Luciferase reporter screening assay for TGF-β activity (3TP-Lux)
Parameters: species or system mouse
Details: FIG. 6
Method: The C2C12 cells, a mouse myoblast cell line, were obtained from the American Type Culture Collection (ATCC, Manassas, 8 VA). Cells were grown in Dulbecco's modified Eagle medium (DMEM, Gibco Life Technologies, Rockville, Md.) with 10% non heat inactivated fetal bovine serum (Atlanta Biologicals, Norcross, Ga.). The C2C12 cells at passages 4 to 7 were subcultured in T-75 cm2 flasks at 37° C. in a humidified atmosphere containing 5% CO2. When the flasks reached 80% confluence, the cells were trypsinized and seeded in triplicate at 50,000 cells/well in a 12-well plate for the Dual-Luciferase reporter assay.
The C2C12 cells were seeded at a 50,000 cell/well in 12-well plates on day 1. […]
For each well, a total of 1 μg DNA was used for the cotransfection and concentration of pGL4.74 Renilla luciferase vector was 1/15 of 3TP-Lux reporter plasmid. […] On day 5, the luciferase activity was measured using the luciferase assay kit (Promega, Madison, Wis.) according to the manufacturer's instructions on a luminescence reader (VictorTMX Light, PerkinElmer Life and Analytical Sciences, Waltham, Mass.). […]

Substance: TGF-β: Transforming growth factor beta, a secreted protein; cells were treated with TGF-β1 in the reporter assay
- reporter response at higher TGF-β doses (doses ranging from 10 ng/ml to 100 ng/ml of TGF-β, compared with 5 ng/ml dose, DMSO instead of compounds): did not increase reporter response beyond 5 ng/ml dose
- TGF-β dose at which maximum reporter response was reached (luciferase reporter assay, DMSO solvent instead of compounds): 5 ng/mL

Source: US10322125B2, “TGF-beta enhancing compositions for cartilage repair and methods related thereto” (EMORY UNIVERSITY, priority 2013, dated 2019)
